Measurements reported in US12173020B2, “New-type oxazolidinone compounds and preparation method therefor” (priority 2019, dated 2024).

Key:
[1] = test system: methicillin-resistant Staphylococcus aureus (MRSA); experiment: agar dilution method, inhibitory effect on MRSA; format: cell-based; settings: for MIC50: Staphylococcus aureus, read-out: Minimum inhibitory concentration (MIC50, μg/ml) MRSA
From the text: (§1) In order to determine the antibacterial activity of these new oxazolidinone-based compounds, an agar dilution method was used to test the inhibitory effect on methicillin-resistant Staphylococcus aureus (MRSA) and vancomycin-resistant Enterococcus (VRE). The bacteria inhibition effect was expressed as minimum inhibitory concentration (MIC50, μg/ml) The test results are shown in the following table.

[2] = test system: vancomycin-resistant Enterococcus (VRE); experiment: agar dilution method, inhibitory effect on VRE; format: cell-based; settings: for MIC50: Enterococcus, read-out: Minimum inhibitory concentration (MIC50, μg/ml) VRE
From the text: as §1

SMILES	MIC50 [1] [µg/mL]	MIC50 [2] [µg/mL]	Minimum inhibitory concentration (MIC50, μg/ml) MRSA [1] [µg/mL]	Minimum inhibitory concentration (MIC50, μg/ml) VRE [2] [µg/mL]
Cn1nnc(-c2ccc(-c3ccc(N4C[C@@H](C(O)F)OC4=O)cc3F)cn2)n1.O=P(O)(O)O (stereo partly drawn) [compound 92, (S)-3-(3-fluoro-4-(6-(2-methyl-2H-tetrazol-5-yl)pyridin-3-yl)phenyl)-5-(hydroxyfluoromethyl) oxazolidin-2-one phosphate]	0.9	0.9	–	–
O=C1O[C@H](C(OP(=O)(O)O)C(F)(F)F)CN1c1ccc(-c2ccc(-c3nnn(C4CC4)n3)nc2)c(F)c1 (stereo partly drawn) [compound 112, (S)-3-(3-fluoro-4-(6-(2-cyclopropyl-2H-tetrazol-5-yl)pyridin-3-yl)phenyl)-5-(1-hydroxy-2-trifluoroethyl) oxazolidin-2-one phosphate]	–	–	0.9	0.9
CCn1nnc(-c2ccc(-c3ccc(N4C[C@@H](C(O)CF)OC4=O)cc3F)cn2)n1.O=P(O)(O)O (stereo partly drawn) [compound 136, (S)-3-(3-fluoro-4-(6-(2-ethyl-2H-tetrazol-5-yl)pyridin-3-yl)phenyl)-5-(1-hydroxy-2-fluoroethyl) oxazolidin-2-one phosphate]	0.4	0.2	–	–
C=Cn1nnc(-c2ccc(-c3ccc(N4C[C@H](C(O)C5CC5)OC4=O)cc3F)cn2)n1.O=P(O)(O)O (stereo partly drawn) [compound 155, (R)-3-(3-fluoro-4-(6-(2-vinyl-2H-tetrazol-5-yl)pyridin-3-yl)phenyl)-5-(1-hydroxy-1-cyclopropylmethyl) oxazolidin-2-one phosphate]	0.9	0.5	–	–
C=Cn1nnc(-c2ccc(-c3ccc(N4C[C@@H](C(O)C5CC5)OC4=O)cc3F)cn2)n1.O=P(O)(O)O (stereo partly drawn) [compound 156, (S)-3-(3-fluoro-4-(6-(2-vinyl-2H-tetrazol-5-yl)pyridin-3-yl)phenyl)-5-(1-hydroxy-1-cyclopropylmethyl) oxazolidin-2-one phosphate]	0.4	0.4	–	–
CCC(O)[C@H]1CN(c2ccc(-c3ccc(-c4nnn(CC)n4)nc3)c(F)c2)C(=O)O1.O=P(O)(O)O (stereo partly drawn) [compound 99, (R)-3-(3-fluoro-4-(6-(2-ethyl-2H-tetrazol-5-yl)pyridin-3-yl)phenyl)-5-(1-hydroxypropyl) oxazolidin-2-one phosphate]	0.2	0.2	–	–
CCCn1nnc(-c2ccc(-c3ccc(N4C[C@H](C(O)C5CC5)OC4=O)cc3F)cn2)n1.O=P(O)(O)O (stereo partly drawn) [compound 143, (R)-3-(3-fluoro-4-(6-(2-propyl-2H-tetrazol-5-yl)pyridin-3-yl)phenyl)-5-(1-hydroxy-1-cyclopropylmethyl) oxazolidin-2-one phosphate]	0.3	0.2	–	–
C=Cn1nnc(-c2ccc(-c3ccc(N4C[C@@H](C(O)F)OC4=O)cc3F)cn2)n1.O=P(O)(O)O (stereo partly drawn) [compound 126, (S)-3-(3-fluoro-4-(6-(2-vinyl-2H-tetrazol-5-yl)pyridin-3-yl)phenyl)-5-(hydroxyfluoromethyl) oxazolidin-2-one phosphate]	0.7	0.7	–	–
CCC(O)[C@@H]1CN(c2ccc(-c3ccc(-c4nnn(C)n4)nc3)c(F)c2)C(=O)O1.O=P(O)(O)O (stereo partly drawn) [compound 90, (S)-3-(3-fluoro-4-(6-(2-methyl-2H-tetrazol-5-yl)pyridin-3-yl)phenyl)-5-(1-hydroxypropyl) oxazolidin-2-one phosphate]	2	2	–	–
Cn1nnc(-c2ccc(-c3ccc(N4C[C@@H](C(O)CF)OC4=O)cc3F)cn2)n1.O=P(O)(O)O (stereo partly drawn) [compound 130, (S)-3-(3-fluoro-4-(6-(2-methyl-2H-tetrazol-5-yl)pyridin-3-yl)phenyl)-5-(1-hydroxy-2-fluoroethyl) oxazolidin-2-one phosphate]	0.2	0.2	–	–
CCCn1nnc(-c2ccc(-c3ccc(N4C[C@@H](C(O)C(F)(F)F)OC4=O)cc3F)cn2)n1.O=P(O)(O)O (stereo partly drawn) [compound 104, (S)-3-(3-fluoro-4-(6-(2-propyl-2H-tetrazol-5-yl)pyridin-3-yl)phenyl)-5-(1-hydroxy-2-trifluoroethyl) oxazolidin-2-one phosphate]	–	–	0.5	0.5
C=Cn1nnc(-c2ccc(-c3ccc(N4C[C@H](C(OP(=O)(O)O)C(F)F)OC4=O)cc3F)cn2)n1 (stereo partly drawn) [compound 151, (R)-3-(3-fluoro-4-(6-(2-vinyl-2H-tetrazol-5-yl)pyridin-3-yl)phenyl)-5-(1-hydroxy-2-difluoroethyl) oxazolidin-2-one phosphate]	–	–	0.8	0.6
CCCn1nnc(-c2ccc(-c3ccc(N4C[C@H](CO)OC4=O)cc3F)cn2)n1.O=P(O)(O)O [compound 81, (R)-3-(3-fluoro-4-(6-(2-propyl-2H-tetrazol-5-yl)pyridin-3-yl)phenyl)-5-(hydroxymethyl) oxazolidin-2-one phosphate]	1.2	1.2	–	–
CCn1nnc(-c2ccc(-c3ccc(N4C[C@H](C(O)C(F)(F)F)OC4=O)cc3F)cn2)n1.O=P(O)(O)O (stereo partly drawn) [compound 95, (R)-3-(3-fluoro-4-(6-(2-ethyl-2H-tetrazol-5-yl)pyridin-3-yl)phenyl)-5-(1-hydroxy-2-trifluoroethyl) oxazolidin-2-one phosphate]	–	–	0.3	0.3
CCn1nnc(-c2ccc(-c3ccc(N4C[C@@H](CO)OC4=O)cc3F)cn2)n1.O=P(O)(O)O [compound 80, (S)-3-(3-fluoro-4-(6-(2-ethyl-2H-tetrazol-5-yl)pyridin-3-yl)phenyl)-5-(hydroxymethyl) oxazolidin-2-one phosphate]	1.9	1.9	–	–
CCCn1nnc(-c2ccc(-c3ccc(N4C[C@@H](C(O)CF)OC4=O)cc3F)cn2)n1.O=P(O)(O)O (stereo partly drawn) [compound 142, (S)-3-(3-fluoro-4-(6-(2-propyl-2H-tetrazol-5-yl)pyridin-3-yl)phenyl)-5-(1-hydroxy-2-fluoroethyl) oxazolidin-2-one phosphate]	0.2	0.2	–	–
CCCn1nnc(-c2ccc(-c3ccc(N4C[C@@H](C(O)CC)OC4=O)cc3F)cn2)n1.O=P(O)(O)O (stereo partly drawn) [compound 108, (S)-3-(3-fluoro-4-(6-(2-propyl-2H-tetrazol-5-yl)pyridin-3-yl)phenyl)-5-(1-hydroxypropyl) oxazolidin-2-one phosphate]	0.5	0.4	–	–
C=Cn1nnc(-c2ccc(-c3ccc(N4C[C@@H](C(OP(=O)(O)O)C(F)(F)F)OC4=O)cc3F)cn2)n1 (stereo partly drawn) [compound 120, (S)-3-(3-fluoro-4-(6-(2-vinyl-2H-tetrazol-5-yl)pyridin-3-yl)phenyl)-5-(1-hydroxy-2-trifluoroethyl) oxazolidin-2-one phosphate]	–	–	0.2	0.2
CCn1nnc(-c2ccc(-c3ccc(N4C[C@@H](C(O)C5CC5)OC4=O)cc3F)cn2)n1.O=P(O)(O)O (stereo partly drawn) [compound 138, (S)-3-(3-fluoro-4-(6-(2-ethyl-2H-tetrazol-5-yl)pyridin-3-yl)phenyl)-5-(1-hydroxy-1-cyclopropylmethyl) oxazolidin-2-one phosphate]	1	1	–	–
Cn1nnc(-c2ccc(-c3ccc(N4C[C@@H](C(OP(=O)(O)O)C(F)F)OC4=O)cc3F)cn2)n1 (stereo partly drawn) [compound 128, (S)-3-(3-fluoro-4-(6-(2-methyl-2H-tetrazol-5-yl)pyridin-3-yl)phenyl)-5-(1-hydroxy-2-difluoroethyl) oxazolidin-2-one phosphate]	–	–	0.5	0.5
Cn1nnc(-c2ccc(-c3ccc(N4C[C@H](COP(=O)(O)O)OC4=O)cc3F)cn2)n1 [Tedizolid phosphate, reference compound]	2	2	–	–
O=C1O[C@@H](C(O)C(F)F)CN1c1ccc(-c2ccc(-c3nnn(C4CC4)n3)nc2)c(F)c1.O=P(O)(O)O (stereo partly drawn) [compound 145, (R)-3-(3-fluoro-4-(6-(2-cyclopropyl-2H-tetrazol-5-yl)pyridin-3-yl)phenyl)-5-(1-hydroxy-2-difluoroethyl) oxazolidin-2-one phosphate]	–	–	0.6	0.5
CCn1nnc(-c2ccc(-c3ccc(N4C[C@@H](C(C)O)OC4=O)cc3F)cn2)n1.O=P(O)(O)O (stereo partly drawn) [compound 98, (S)-3-(3-fluoro-4-(6-(2-ethyl-2H-tetrazol-5-yl)pyridin-3-yl)phenyl)-5-(1-hydroxyethyl) oxazolidin-2-one phosphate]	1.6	1.5	–	–
Cn1nnc(-c2ccc(-c3ccc(N4C[C@H](C(O)C5CC5)OC4=O)cc3F)cn2)n1.O=P(O)(O)O (stereo partly drawn) [compound 131, (R)-3-(3-fluoro-4-(6-(2-methyl-2H-tetrazol-5-yl)pyridin-3-yl)phenyl)-5-(1-hydroxy-1-cyclopropylmethyl) oxazolidin-2-one phosphate]	0.2	0.1	–	–
CC(O)[C@@H]1CN(c2ccc(-c3ccc(-c4nnn(C5CC5)n4)nc3)c(F)c2)C(=O)O1.O=P(O)(O)O (stereo partly drawn) [compound 114, (S)-3-(3-fluoro-4-(6-(2-cyclopropyl-2H-tetrazol-5-yl)pyridin-3-yl)phenyl)-5-(1-hydroxyethyl) oxazolidin-2-one phosphate]	0.3	0.3	–	–
CCn1nnc(-c2ccc(-c3ccc(N4C[C@H](CO)OC4=O)cc3F)cn2)n1.O=P(O)(O)O [compound 79, (R)-3-(3-fluoro-4-(6-(2-ethyl-2H-tetrazol-5-yl)pyridin-3-yl)phenyl)-5-(hydroxymethyl) oxazolidin-2-one phosphate]	1.8	1.5	–	–
